pIC50: −log10 of the molar value.
Biological target: T1, human DGAT1 (Homo sapiens, UniProt O75907)
T1 construct: made in house; host or cells: Sf9 insect cells (recombinant baculovirus); membrane fraction used
T1 sequence (O75907 1-488): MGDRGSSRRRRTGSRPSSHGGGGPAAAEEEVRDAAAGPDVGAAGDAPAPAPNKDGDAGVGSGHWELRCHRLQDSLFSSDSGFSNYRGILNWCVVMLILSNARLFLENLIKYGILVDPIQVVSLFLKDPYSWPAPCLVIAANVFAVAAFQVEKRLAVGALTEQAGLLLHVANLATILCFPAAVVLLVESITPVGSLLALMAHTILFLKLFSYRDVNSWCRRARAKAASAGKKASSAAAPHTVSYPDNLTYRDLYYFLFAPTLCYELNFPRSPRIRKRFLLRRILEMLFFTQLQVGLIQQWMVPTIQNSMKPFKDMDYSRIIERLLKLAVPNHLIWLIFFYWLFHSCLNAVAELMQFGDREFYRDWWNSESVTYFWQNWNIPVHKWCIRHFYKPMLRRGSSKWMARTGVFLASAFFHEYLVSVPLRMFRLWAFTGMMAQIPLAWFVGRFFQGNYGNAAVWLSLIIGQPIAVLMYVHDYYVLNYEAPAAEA
Assay: Human Enzyme Assay (DGAT1 inhibition)
Assay type: biochemical
Details: human DGAT1 expressed in insect cell (sf9) membranes; 14C oleoyl coenzyme A, 30 minutes at room temperature
Experimental: The in vitro assay to identify DGAT1 inhibitors uses human DGAT1 expressed in insect cell membranes as the enzyme source (Proc. Natl. Acad. Sci. 1998, 95, 13018-13023). Briefly, sf9 cells were infected with recombinant baculovirus containing human DGAT1 coding sequences and harvested after 48 h. Cells were lysed by sonication and membranes isolated by centrifuging at 28000 rpm for 1 h at 4° C. on a 41% sucrose gradient. The membrane fraction at the interphase was collected, washed, and stored in liquid nitrogen.
DGAT1 activity was assayed by a modification of the method described by Coleman (Methods in Enzymology 1992, 209, 98-102). Compound at 1-10 μM was incubated with 0.4 μg membrane protein, 5 mM MgCl2, and 100 μM 1,2 dioleoyl-sn-glycerol in a total assay volume of 200 μl in plastic tubes. The reaction was started by adding ^14C oleoyl coenzyme A (30 μM final concentration) and incubated at room temperature for 30 minutes. The reaction was stopped by adding 1.5 mL 2-propanol:heptane:water (80:20:2). Radioactive triolein product was separated into the organic phase by adding 1 mL heptane and 0.5 mL 0.1 M carbonate buffer pH 9.5. DGAT1 activity was quantified by counting aliquots of the upper heptane layer by liquid scintillography.

O=C(Nc1ccc(S(=O)(=O)C2CCC(C(=O)O)CC2)cc1)c1nnc(Nc2cc(F)c(F)c(F)c2)o1 (mixture of isomers) [Example 1, 4-[4-[[5-[(3,4,5-Trifluorophenyl)amino]1,3,4-oxadiazole-2-carbonyl]amino]phenyl]sulfonylcyclohexane-1-carboxylic acid]
pIC50: 6.54
